Among the data in patent publication US7723523B2, “Tetrahydropyridothiophenes” (4SC AG, priority 2004, dated 2010) are IC50 values, retold here.

In assay [1] the test system is RKO (RKOp27) human colon adenocarcinoma cells. Kind of assay: Alamar Blue cell viability assay, anti-proliferative/cytotoxic activity on proliferating RKOp27 cells. Format: cell-based. As to conditions: absence of Ponasterone A, 72 hours incubation, read-out: IC50 RKO p27 proliferating. How it is done: The anti-proliferative/cytotoxic activity of the compounds described herein, can be tested on subclones of RKO (RKOp27) human colon adenocarcinoma cells (Schmidt et al., Oncogene 19, 2423-2429; 2000) using the Alamar Blue cell viability assay (described in O'Brien et al. Eur J Biochem 267, 5421-5426, 2000). The compounds are dissolved as 20 mM solutions in dimethylsulfoxide (DMSO) and subsequently diluted in semi-logarithmic steps. DMSO dilutions are further diluted 1:100 into Dulbecco's modified Eagle's medium (DMEM) containing 10% fetal calf serum to a final concentration twice as much as the final concentration in the test. RKO subclones are seeded into 96 well flat bottom plates at a density of 4000 cells per well in a volume of 50 μl per well. 24 hours after seeding 50 μl each of the compound dilutions in DMEM are added into each well of the 96 well plate. Each compound dilution is tested as quadruplicates. Wells containing untreated control cells are filled with 50 μl DMEM containing 1% DMSO. The cells are then incubated with the substances for 72 hours at 37° C. in a humidified atmosphere containing 5% carbon dioxide. To determine the viability of the cells, 10 μl of an Alamar Blue solution (Biosource) are added and the fluorescence is measured at an extinction of 544 nm and an emission of 590 nm. For the calculation of the cell viability the emission value from untreated cells is set as 100% viability and the emission rates of treated cells are set in relation to the values of untreated cells. Viabilities are expressed as % values.
The corresponding IC50 values of the compounds for anti-proliferative/cytotoxic activity are determined from the concentration-effect curves.
Representative IC50 values for anti-proliferation/cytotoxicity determined in the aforementioned assay are described in the table A (1st column), in which the numbers of the compound correspond to the numbers of the examples.
A general note: Resazurin is reduced to fluorescent resorufin, in cell work by metabolically active cells.

In assay [2] the test system is RKO colon adenocarcinoma cells (RKOp27) arrested by expression of ectopic p27Kip1. Kind of assay: Alamar Blue cell viability assay on RKOp27 cells arrested by Ponasterone A-induced p27Kip1 (cell cycle specific mode of action). Format: cell-based. As to conditions: Homo sapiens, RKOp27, 72 h, cells arrested by p27Kip1 induced with 10 μM Ponasterone A, 72 hours incubation, read-out: IC50 RKO p27 arrested. As for the experimental part:
To determine the cell cycle specific mode of action, subclones of RKO colon adenocarcinoma cells (RKOp27 or RKOp21 as described by Schmidt et al. in Oncogene 19, 2423-2429; 2000) are seeded into 96 well flat bottom plates at a density of 16000 cells per well in a volume of 50 μl per well in DMEM growth medium with 10% FCS containing 10 μM Ponasterone A. 24 hours after seeding 50 μl each of the compound dilutions in DMEM are added into each well of the 96 well plate. Each compound dilution is tested as quadruplicates. Wells containing untreated control cells are filled with 50 μl DMEM containing 1% DMSO. The cells are then incubated with the substances for 72 hours at 37° C. in a humidified atmosphere containing 5% carbon dioxide. To determine the viability of the cells, 10 μl of an Alamar Blue solution (Biosource) are added and the fluorescence is measured at an extinction of 544 nm and an emission of 590 nm. For the calculation of the cell viability the emission value from untreated cells is set as 100% viability and the emission rates of treated cells are set in relation to the values of untreated cells. Viabilities are expressed as % values. Viability is compared of proliferating cells grown in the absence of the inducer Ponasterone A, versus viability of cells arrested by the expression of ectopic p27Kip1 induced by Ponasterone A. The data of this experimental setting are summarized in table A (2nd column).

`N#Cc1c(NC(=O)/C=C/c2cccnc2)sc2c1CCN(C(=O)CCc1nccs1)C2` [Example 198, (E)-N-[3-Cyano-6-(3-thiazol-2-yl-propanoyl)-4,5,6,7-tetrahydro-thieno[2,3-c]pyridin-2-yl]-3-pyridin-3-yl-acrylamide]: the results for the IC50 in assay [1] and in assay [2] were at most 2 µM and at least 100 µM, respectively.

`N#Cc1c(NC(=O)/C=C/c2cccnc2)sc2c1CCN(C(=O)OCCOCc1ccccc1)C2` [Example 166, 3-Cyano-2-((E)-3-pyridin-3-yl-allanoylamino)-4,7-dihydro-5H-thieno[2,3-c]pyridine-6-carboxylic acid 2-benzyloxy-ethyl ester]: the IC50 is at most 2 µM in assay [1] and at least 100 µM in assay [2].

For `COCCOC(=O)N1CCc2c(sc(NC(=O)/C=C/c3ccccc3)c2C#N)C1` [Example 118, 3-Cyano-2-((E)-3-phenyl-allanoylamino)-4,7-dihydro-5H-thieno[2,3-c]pyridine-6-carboxylic acid 2-methoxy-ethyl ester], the IC50 was at most 2 µM in assay [1] and at least 100 µM in assay [2].

Regarding `CCNC(=O)N1CCc2c(sc(NC(=O)/C=C/c3ccccc3)c2C#N)C1` [Example 37, 3-Cyano-2-((E)-phenyl-allanoylamino)-4,7-dihydro-5H-thieno[2,3-c]pyridine-6-carboxylic acid ethylamide], the IC50 was at most 2 µM in assay [1] and above 100 µM in assay [2].

`CCOC(=O)N1CCc2c(sc(NC(=O)/C=C/c3ccc(OCC)cc3)c2C#N)C1` [Example 60, 3-Cyano-2-[(E)-3-(4-ethoxy-phenyl)-allanoylamino]-4,7-dihydro-5H-thieno[2,3-c]pyridine-6-carboxylic acid ethyl ester]: the IC50 was at most 2 µM in assay [1] and at least 100 µM in assay [2].

Take `CCOc1ccccc1/C=C/C(=O)Nc1sc2c(c1C#N)CCN(C(=O)CCc1cccnc1)C2` [Example 220, (E)-N-[3-Cyano-6-(3-pyridin-3-yl-propanoyl)-4,5,6,7-tetrahydro-thieno[2,3-c]pyridin-2-yl]-3-(2-ethoxy-phenyl)-acrylamide]: the IC50 is at most 0.5 µM in assay [1] and at least 50 µM in assay [2].

`CCOC(=O)N1CCc2c(sc(NC(=O)/C=C/c3cccn3C)c2C#N)C1` [Example 97, 3-Cyano-2-[(E)-3-(1-methyl-1H-pyrrol-2-yl)-allanoylamino]-4,7-dihydro-5H-thieno[2,3-c]pyridine-6-carboxylic acid ethyl ester]: the IC50 in assay [1] is at most 2 µM; in assay [2], at least 100 µM.

In the case of `CCOC(=O)N1CCc2c(sc(NC(=O)/C=C/c3ccccc3-c3ccccc3)c2C#N)C1` [Example 73, 2-((E)-3-Biphenyl-2-yl-allanoylamino)-3-cyano-4,7-dihydro-5H-thieno[2,3-c]pyridine-6-carboxylic acid ethyl ester], the figures for the IC50 in assay [1] and in assay [2] were at most 2 µM and at least 100 µM, respectively.

Turning to `CCCOC(=O)N1CCc2c(sc(NC(=O)/C=C/c3cccnc3)c2C#N)C1` [Example 145, 3-Cyano-2-((E)-3-pyridin-3-yl-allanoylamino)-4,7-dihydro-5H-thieno[2,3-c]pyridine-6-carboxylic acid propyl ester], the IC50 in assay [1] is at most 0.5 µM; in assay [2], at least 50 µM.

`CCOC(=O)N1CCc2c(sc(NC(=O)/C=C/c3cccc(F)c3C)c2C#N)C1` [Example 80, 3-Cyano-2-[(E)-3-(3-fluoro-2-methyl-phenyl)-allanoylamino]-4,7-dihydro-5H-thieno[2,3-c]pyridine-6-carboxylic acid ethyl ester]: the IC50 is at most 2 µM in assay [1] and at least 100 µM in assay [2].

For the compound `CCOC(=O)N1CCc2c(sc(NC(=O)/C=C/c3ccc(Cl)o3)c2C#N)C1` [Example 78, 2-[(E)-3-(5-Chloro-furan-2-yl)-allanoylamino]-3-cyano-4,7-dihydro-5H-thieno[2,3-c]pyridine-6-carboxylic acid ethyl ester], the figures for the IC50 in assay [1] and in assay [2] were at most 2 µM and at least 100 µM, respectively.

On to `CCSC(=O)N1CCc2c(sc(NC(=O)/C=C/c3cccnc3)c2C#N)C1` [Example 36, 3-Cyano-2-((E)-3-pyridin-3-yl-allanoylamino)-4,7-dihydro-5H-thieno[2,3-c]pyridine-6-carbothioic acid S-ethyl ester], for which the IC50 in assay [1] is at most 2 µM; in assay [2], above 100 µM.

Take `COc1ccccc1/C=C/C(=O)Nc1sc2c(c1C#N)CCN(C(=O)OCCc1ccccn1)C2` [Example 139, 3-Cyano-2-[(E)-3-(2-methoxy-phenyl)-allanoylamino]-4,7-dihydro-5H-thieno[2,3-c]pyridine-6-carboxylic acid 2-pyridin-2-yl-ethyl ester]: the figures for the IC50 in assay [1] and in assay [2] were at most 2 µM and at least 100 µM, respectively.

`CCOC(=O)N1CCc2c(sc(NC(=O)/C=C/c3cccc4c3OCC4)c2C#N)C1` [Example 234, 3-Cyano-2-((E)-3-2,3-dihydro-benzofuran-7-yl-allanoylamino)-4,7-dihydro-5H-thieno[2,3-c]pyridine-6-carboxylic acid ethyl ester]: the half-inhibitory concentration (IC50) in assay [1] was at most 2 µM; in assay [2], at least 100 µM.

Consider `CCOC(=O)N1CCc2c(sc(NC(=O)/C=C/c3cccnc3)c2C#N)C1` [Example 7, N-(6-Ethoxycarbonyl-3-cyano-4,5,6,7-tetrahydro-thieno[2,3-c]pyridin-2-yl)-3-pyridyl-acrylamide], for which the figures for the IC50 in assay [1] and in assay [2] were at most 2 µM and above 100 µM, respectively.

With `CC(C)(C)OC(=O)N1CCc2c(sc(NC(=O)/C=C/c3cccnc3)c2C#N)C1` [Example 32, 3-Cyano-2-((E)-3-pyridin-3-yl-allanoylamino)-4,7-dihydro-5H-thieno[2,3-c]pyridine-6-carboxylic acid tert-butyl ester], the IC50 is at most 2 µM in assay [1] and above 100 µM in assay [2].

Turning to `CCOc1ccccc1/C=C/C(=O)Nc1sc2c(c1C#N)CCN(C(=O)OCc1cccnc1)C2` [Example 237, 3-Cyano-2-[(E)-3-(2-ethoxy-phenyl)-allanoylamino]-4,7-dihydro-5H-thieno[2,3-c]pyridine-6-carboxylic acid pyridin-3-ylmethyl ester], the figures for the IC50 in assay [1] and in assay [2] were at most 2 µM and at least 100 µM, respectively.

`N#Cc1c(NC(=O)/C=C/c2cccnc2)sc2c1CCN(C(=O)OCc1ccccc1)C2` [Example 144, 3-Cyano-2-((E)-3-pyridin-3-yl-allanoylamino)-4,7-dihydro-5H-thieno[2,3-c]pyridine-6-carboxylic acid benzyl ester]: the results for the IC50 in assay [1] and in assay [2] were at most 2 µM and at least 100 µM, respectively.

As for `CCOC(=O)N1CCc2c(sc(NC(=O)/C=C/c3ccccc3Oc3ccccc3)c2C#N)C1` [Example 104, 3-Cyano-2-[(E)-3-(2-phenoxy-phenyl)-allanoylamino]-4,7-dihydro-5H-thieno[2,3-c]pyridine-6-carboxylic acid ethyl ester], the figures for the IC50 in assay [1] and in assay [2] were at most 2 µM and at least 100 µM, respectively.

For the compound `CCOC(=O)N1CCc2c(sc(NC(=O)/C=C/c3ccccc3OC(C)C)c2C#N)C1` [Example 98, 3-Cyano-2-[(E)-3-(2-isopropoxy-phenyl)-allanoylamino]-4,7-dihydro-5H-thieno[2,3-c]pyridine-6-carboxylic acid ethyl ester], the half-inhibitory concentration (IC50) was at most 2 µM in assay [1] and at least 100 µM in assay [2].

As a reminder, the IC50 is the point on the concentration scale where inhibition reaches its midpoint.
